Reference: US20030228607A1, “Screening method and modulators having an improved therapeutic profile” (priority 2002, published 2003)

Molecular target: T1, LXRα and LXRβ (Homo sapiens, UniProt P55055+Q13133)
T1 construct: made in house
T1 sequence (Q13133 188-447 limits assumed): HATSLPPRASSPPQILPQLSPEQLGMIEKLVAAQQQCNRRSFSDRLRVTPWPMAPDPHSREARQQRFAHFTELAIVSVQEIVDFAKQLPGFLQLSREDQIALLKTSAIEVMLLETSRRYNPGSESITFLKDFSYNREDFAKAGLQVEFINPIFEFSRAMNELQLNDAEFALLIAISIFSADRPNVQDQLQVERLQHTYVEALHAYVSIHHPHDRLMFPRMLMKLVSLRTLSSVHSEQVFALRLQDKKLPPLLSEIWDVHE
T1 sequence (P55055 197-460 limits assumed): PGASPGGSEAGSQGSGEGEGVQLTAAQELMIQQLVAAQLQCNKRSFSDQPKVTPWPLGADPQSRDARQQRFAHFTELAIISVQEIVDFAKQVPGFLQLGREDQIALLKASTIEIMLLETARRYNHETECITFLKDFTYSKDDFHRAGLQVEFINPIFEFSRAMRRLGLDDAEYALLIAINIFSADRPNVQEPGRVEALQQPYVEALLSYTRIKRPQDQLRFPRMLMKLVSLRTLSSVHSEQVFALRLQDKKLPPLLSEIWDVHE
T1 sequence (Q15788 676-700 partner limits assumed): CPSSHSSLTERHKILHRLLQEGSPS
Assay: High throughput FRET co-activator (SRC-1) recruitment assay, multiplexed
Type: biochemical
Settings: 10 uM, positive control; negative control DMSO around 0
Method: FIG. 9. is a scatter plot of a co-activator recruitment assay showing fluorescence emitted from APC at 665 nm in a FRET based (biochemical) co-factor recruitment assay that detects the binding of the SCR-1 co-activator to […]. In this assay, recruitment of SCR-1 to both LXRα and LXRβ were simultaneously assayed.
High through FRET cofactor interaction assays were performed in 96 or 384 well assay well plates using automated liquid handling and analysis. Screens for LXR were performed using the protocol below. Equivalent screens for FXR were performed using the FXR (SEQ.ID. No. 4) ligand binding domain in place of LXRα and LXRβ LBD and at a concentration of 8 nM per well.
1. Partially purified recombinant protein comprising glutathione-S-transferase fused in frame to the LXR-ligand binding domain (comprising amino acids 188-447 of human LXRα (SEQ. ID. No. 6), or amino acids 198-461 of human LXRβ (SEQ. ID. No. 7)).
2. Biotinylated peptide containing a SRC-1 receptor interaction motif(B-SRC-1) (SEQ. ID. No. 46).
3. […]
d) Plates were read using an LJL Analyst, or similar instrument, using the following conditions: Channel 1: The excitation wavelength was set to 330 nm, emitted light was collected at 615 nm, with 100 flashes per well, an integration time of 1000 μs; a 10 msec interval between flashes, and a delay after flashes of 200 μs. […]

## CC(C)CC[C@@H](O)[C@@H](C)[C@H]1CC[C@H]2[C@@H]3CC=C4C[C@@H](O)CC[C@]4(C)[C@H]3CC[C@]12C [22-R-Hydroxy-Cholesterol]
  fluorescence emitted from APC at 665 nm (SRC-1 recruitment, Spotfire scale): around 100
